Here are results for 4 molecules from ChEMBL document CHEMBL5465560, “Selectivity Literature for EUbOPEN Chemogenomic Library” (2024).

Test [1] has as its target Phosphatidylinositol 4-kinase beta (Homo sapiens, UniProt Q9UBF8). The experiment in a line: Selectivity interaction (KinomeScan (DiscoverX)) EUB0000666a PI4KB. The note with it: at 10 µM.
Test [2] has as its target Proto-oncogene tyrosine-protein kinase Src (Homo sapiens, UniProt P12931). Put plainly: Selectivity interaction (KinomeScan (DiscoverX)) EUB0000666a SRC. The note with it: at 10 µM.
For test [3], the target named is T1, Protein arginine N-methyltransferase 9 (Homo sapiens) (UniProt Q6P2P2).
T1 sequence (whole entry): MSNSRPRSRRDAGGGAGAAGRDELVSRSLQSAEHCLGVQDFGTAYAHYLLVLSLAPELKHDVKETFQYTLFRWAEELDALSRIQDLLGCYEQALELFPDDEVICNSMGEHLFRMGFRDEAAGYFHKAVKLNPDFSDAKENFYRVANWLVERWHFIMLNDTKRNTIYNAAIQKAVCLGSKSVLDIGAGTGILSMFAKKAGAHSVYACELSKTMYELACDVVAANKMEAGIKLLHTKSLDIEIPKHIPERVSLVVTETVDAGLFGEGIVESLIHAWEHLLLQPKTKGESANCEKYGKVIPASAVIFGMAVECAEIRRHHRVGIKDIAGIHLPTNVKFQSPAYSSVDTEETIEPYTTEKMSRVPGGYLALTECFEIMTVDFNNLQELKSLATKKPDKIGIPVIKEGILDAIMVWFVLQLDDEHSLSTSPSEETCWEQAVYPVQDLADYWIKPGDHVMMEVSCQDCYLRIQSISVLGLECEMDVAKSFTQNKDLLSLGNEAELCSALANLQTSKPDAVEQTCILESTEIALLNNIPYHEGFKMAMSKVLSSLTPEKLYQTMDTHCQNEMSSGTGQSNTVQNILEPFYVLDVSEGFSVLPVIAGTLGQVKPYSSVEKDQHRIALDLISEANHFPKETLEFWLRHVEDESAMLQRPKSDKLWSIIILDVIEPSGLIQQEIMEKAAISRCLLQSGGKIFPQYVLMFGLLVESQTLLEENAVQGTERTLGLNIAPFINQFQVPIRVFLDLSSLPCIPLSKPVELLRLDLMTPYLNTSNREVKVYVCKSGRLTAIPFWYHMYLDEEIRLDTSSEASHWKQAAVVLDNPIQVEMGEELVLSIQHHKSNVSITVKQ
Put plainly: Selectivity interaction (Transferase panel (protein, RNA, and DNA methyltransferases. and EP300 (acetyltransferase))) EUB0000270b PRMT9.

Test [4] has as its target T2, Serine/threonine-protein kinase PLK4 (Homo sapiens) (UniProt O00444).
T2 sequence (whole entry): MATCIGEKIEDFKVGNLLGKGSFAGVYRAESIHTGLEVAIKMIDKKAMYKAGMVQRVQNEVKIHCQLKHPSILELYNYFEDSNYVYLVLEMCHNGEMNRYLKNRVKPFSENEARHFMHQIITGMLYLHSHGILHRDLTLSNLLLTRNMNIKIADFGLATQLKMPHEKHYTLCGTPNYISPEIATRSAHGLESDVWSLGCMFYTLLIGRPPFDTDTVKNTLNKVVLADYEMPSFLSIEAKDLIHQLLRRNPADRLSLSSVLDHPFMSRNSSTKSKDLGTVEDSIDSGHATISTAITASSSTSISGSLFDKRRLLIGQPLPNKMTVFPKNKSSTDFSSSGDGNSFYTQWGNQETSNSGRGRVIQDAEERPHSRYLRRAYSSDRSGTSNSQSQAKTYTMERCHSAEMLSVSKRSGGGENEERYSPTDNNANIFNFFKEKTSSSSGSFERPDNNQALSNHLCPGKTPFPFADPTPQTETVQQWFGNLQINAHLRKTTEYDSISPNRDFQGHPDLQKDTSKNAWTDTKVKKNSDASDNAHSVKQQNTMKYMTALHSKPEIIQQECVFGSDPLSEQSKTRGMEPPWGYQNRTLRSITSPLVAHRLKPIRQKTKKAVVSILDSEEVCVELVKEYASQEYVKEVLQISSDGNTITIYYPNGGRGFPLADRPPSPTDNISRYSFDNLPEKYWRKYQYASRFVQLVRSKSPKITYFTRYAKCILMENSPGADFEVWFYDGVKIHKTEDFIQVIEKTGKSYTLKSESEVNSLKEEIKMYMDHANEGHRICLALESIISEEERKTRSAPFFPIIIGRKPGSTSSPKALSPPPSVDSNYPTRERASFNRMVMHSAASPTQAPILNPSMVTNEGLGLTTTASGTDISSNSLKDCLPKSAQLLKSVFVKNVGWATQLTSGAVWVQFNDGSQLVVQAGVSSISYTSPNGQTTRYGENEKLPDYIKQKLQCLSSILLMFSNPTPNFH
Put plainly: Selectivity interaction (KinomeScan (DiscoverX)) EUB0000092b PLK4. The note with it: at 10 µM.

The target in test [5] is T3, Dual specificity mitogen-activated protein kinase kinase 6 (Homo sapiens) (UniProt P52564).
T3 sequence (whole entry): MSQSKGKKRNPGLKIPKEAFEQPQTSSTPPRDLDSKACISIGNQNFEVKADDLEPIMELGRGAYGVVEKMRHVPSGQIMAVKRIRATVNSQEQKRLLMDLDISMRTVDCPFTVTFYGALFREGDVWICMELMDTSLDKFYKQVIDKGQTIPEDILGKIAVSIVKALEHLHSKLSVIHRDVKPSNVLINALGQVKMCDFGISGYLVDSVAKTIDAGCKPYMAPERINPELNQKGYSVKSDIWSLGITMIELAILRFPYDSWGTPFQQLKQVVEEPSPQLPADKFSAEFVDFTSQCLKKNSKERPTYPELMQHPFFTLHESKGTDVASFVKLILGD
Put plainly: Selectivity interaction (Kinase panel (KiNativ target engagement assay in Jurkat cells)) EUB0001635a MAP2K6. The class given is cell-based. The conditions noted are these: Selectivity number of off-targets 0.0, Selectivity number of targets 233.0, Source Knowledge https://www.sciencedirect.com/science/article/pii/S2451945619300674?via%3Dihub, at 1 µM.

Chain of Phosphatidylinositol 4-kinase beta (Q9UBF8 2-816 limits assumed): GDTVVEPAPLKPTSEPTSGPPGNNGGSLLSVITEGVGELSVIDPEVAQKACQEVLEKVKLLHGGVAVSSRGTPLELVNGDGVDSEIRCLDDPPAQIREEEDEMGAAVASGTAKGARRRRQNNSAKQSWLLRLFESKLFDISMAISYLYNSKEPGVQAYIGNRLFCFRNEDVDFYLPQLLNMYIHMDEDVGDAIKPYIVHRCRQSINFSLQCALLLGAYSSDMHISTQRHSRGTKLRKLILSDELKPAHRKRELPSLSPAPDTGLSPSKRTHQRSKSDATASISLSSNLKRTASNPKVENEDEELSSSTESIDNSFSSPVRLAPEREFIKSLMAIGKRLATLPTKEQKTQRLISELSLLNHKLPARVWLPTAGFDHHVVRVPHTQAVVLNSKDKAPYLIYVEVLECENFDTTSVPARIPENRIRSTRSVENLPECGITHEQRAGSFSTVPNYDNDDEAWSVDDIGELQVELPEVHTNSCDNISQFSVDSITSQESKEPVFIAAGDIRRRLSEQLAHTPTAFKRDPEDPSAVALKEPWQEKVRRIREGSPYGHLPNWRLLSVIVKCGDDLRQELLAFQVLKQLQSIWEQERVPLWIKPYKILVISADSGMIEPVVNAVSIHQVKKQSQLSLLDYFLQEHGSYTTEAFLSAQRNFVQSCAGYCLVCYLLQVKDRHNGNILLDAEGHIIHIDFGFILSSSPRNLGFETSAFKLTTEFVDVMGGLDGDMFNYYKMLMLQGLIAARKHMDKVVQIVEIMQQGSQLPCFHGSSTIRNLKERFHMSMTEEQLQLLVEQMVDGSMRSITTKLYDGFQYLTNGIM
Chain of Proto-oncogene tyrosine-protein kinase Src (P12931 2-536 limits assumed): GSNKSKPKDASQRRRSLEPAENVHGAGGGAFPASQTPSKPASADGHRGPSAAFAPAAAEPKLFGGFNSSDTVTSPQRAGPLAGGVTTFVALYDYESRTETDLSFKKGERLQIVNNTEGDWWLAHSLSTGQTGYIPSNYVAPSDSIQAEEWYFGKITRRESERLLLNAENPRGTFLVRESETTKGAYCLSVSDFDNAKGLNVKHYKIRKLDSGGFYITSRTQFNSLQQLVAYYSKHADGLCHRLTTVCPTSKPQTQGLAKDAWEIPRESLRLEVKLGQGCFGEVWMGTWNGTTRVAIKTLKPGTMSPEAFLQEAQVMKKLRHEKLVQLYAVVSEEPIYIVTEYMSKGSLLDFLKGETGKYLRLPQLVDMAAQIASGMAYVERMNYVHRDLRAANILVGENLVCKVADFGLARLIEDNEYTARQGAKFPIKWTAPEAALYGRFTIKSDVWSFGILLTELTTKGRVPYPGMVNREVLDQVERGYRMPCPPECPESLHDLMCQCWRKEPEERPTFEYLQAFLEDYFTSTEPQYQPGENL

For the molecule `O=C(NOC[C@H](O)CO)c1ccc(F)c(F)c1Nc1ccc(I)cc1F`, the % of control in test [1] stood at 100%; in test [2], 69%.
For `Cc1cc(CN)cc(C)c1-c1ncn(C)c1-c1cncn1C`, the figures for the % activity in test [3] (at 1 µM) and in test [3] (at 10 µM) were greater than 90% and greater than 80%, respectively.
In test [4], `CCC(=O)N1CCN(c2ccc(-n3c(=O)ccc4cnc5ccc(-c6cnc7ccccc7c6)cc5c43)cc2C(F)(F)F)CC1` returned a % of control of 100%.
On to `C=CC(=O)Nc1ccc(C(=O)Nc2[nH]nc3c2CN(C(=O)N[C@H](CN(C)C)c2ccccc2)C3(C)C)cc1`, for which the % of engagement in test [5] was -2.9%.
